Earlier results as cited in US20240398940A1, “NOVEL LIPID NANOPARTICLES FOR DELIVERY OF NUCLEIC ACIDS” (CureVac SE, priority 2021, published 2024).
Like-named read-outs stand apart in the source and are kept apart here.

Legend:
[1] = in vivo

| Compound | accumulation in tissue [1] | excretion [1] | charge (pH 4) | charge (pH 7) |
| --- | --- | --- | --- | --- |
| poly(2-methyl-2-oxazoline) [PMOZ] | no significant accumulation in tissue | rapidly excreted by the kidney |  |  |
| Cc1c(C)c2c(c(C)c1OC(=O)CCC(=O)OCCC1CCN(CCSSCCN3CCC(CCOC(=O)CCC(=O)Oc4c(C)c(C)c5c(c4C)CCC(C)(CCCC(C)CCCC(C)CCCC(C)C)O5)CC3)CC1)CCC(C)(CCCC(C)CCCC(C)CCCC(C)C)O2 (stereo not shown) [C23, COATSOME ® SS-EC] |  |  | positive charge | neutral charge |
